According to patent US5208145A, “Assay for the presence, in cultured cells, of functional ligand-gated channels, and substances which enhance intracellular lithium accumulation by cultured cells via such channels” (The Salk Institute for Biological Studies, priority 1991, dated 1993):

Test system: PC12 cells
Conditions: sodium formulated buffer plus 10 μM nicotine, 3H-thymidine incorporation, FIG. 1
Method: To subculture, these cells were dislodged from the culture dish by pipetting medium across the culture surface, disassociated by vigorous repeat pipetting, and then distributed to new culture dishes containing fresh media. All cells were maintained at 37° C. in a humidified atmosphere supplemented to 5 percent with CO2.
PC12 cells were distributed to 96 well Costar culture dishes (10^4 cells/well) and the cells were allowed to recover for 24 to 36 hours prior to use. Cells were never allowed to reach confluency. To conduct a lithium-flux experiment, the culture medium was removed and gently replaced with flux-buffer composed of 1.8 mM CaCl2, 25 mM glucose, 10 mM HEPES (pH 7.4), and 115 mM in either sodium chloride or lithium chloride. Each buffer was filter sterilized and supplemented with agonist, antagonist, or both, as described for the experiment being conducted. […] For PC12 cells, culture was then continued as usual for 6 hours before quantitating ^3 H-thymidine incorporation. […]
To determine the incorporation of ^3 H-thymidine into fluxed cells, dishes were frozen at -70°, thawed, and the DNA from each well was collected on glass filters using a Cambridge PhD cell harvester. […] Glass filters were dried, resuspended in Ecolume (ICN) scintillation cocktail, and counted in an LKB Wallace 2010 scintillation counter at 34 percent efficiency.

SMILES: CN1CCCC1c1cccnc1 (stereo not shown) [nicotine]
- effect of the presence of nicotine on cell cycle time of PC12 cells: does not alter the cell cycle time of PC12 cells
